Measurements from patent US20240368122A1, “JAK2 INHIBITORS AND METHODS OF USE THEREOF” (RELAY THERAPEUTICS, INC., priority 2021, published 2024).

How the values were obtained:
[1] = biological target: T1, JAK2 JH2 WT (V536-D812) [W659A, W777A, F794H solubilizing mutations] (Homo sapiens, UniProt O60674, F794H/W659A/W777A); experiment: Surface Plasmon Resonance (SPR) binding assay, JAK2 JH2 domain
T1 construct: **JAK2 JH2 WT (V536-D812) [W659A, W777A, F794H solubilizing mutations]; C-thrombin-avi-His6; thrombin cleavage site (C); His6 (C); purchased Biortus
Procedure, shortened: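 Kinetics came from 1:1 fits of single-cycle runs at 20 °C: four 3-fold dilutions from 5 uM for JH1 or 500 nM for JH2, 60 s association, and 300 s or 1200 s dissociation respectively. Protein was freshly captured per compound in the presence of 10 uM stabilizer compound, with running buffer of pH 7.5 HEPES/NaCl/glycerol/DTT plus 2% DMSO.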

[2] = tested on: TF1 JAK2 V617F STAT3 reporter; experiment: Cellular TF1 STAT3 assay (luciferase reporter), JAK2 V617F; format: cell-based; conditions: Homo sapiens, TF-1, TF1 cells, JAK2 V617F, read-out: Cell PD-TF1 JAK2 V617F STAT3 (IC50)
Procedure, shortened: (§1)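 Measured in TF1 cells with mutant JAK2 V617F and STAT-responsive luciferase: 18-20 h compound exposure at 37 °C, then ONE-glo luminescence.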

[3] = tested on: TF1 JAK2 V617F STAT5 reporter; experiment: Cellular TF1 STAT5 assay (luciferase reporter), JAK2 V617F; format: cell-based; conditions: Homo sapiens, TF-1, TF1 cells, JAK2 V617F, read-out: Cell PD TF1 V617F STAT5 (IC50)
Procedure, shortened: as §1

T1 sequence (O60674 536-812 W659A/W777A/F794H): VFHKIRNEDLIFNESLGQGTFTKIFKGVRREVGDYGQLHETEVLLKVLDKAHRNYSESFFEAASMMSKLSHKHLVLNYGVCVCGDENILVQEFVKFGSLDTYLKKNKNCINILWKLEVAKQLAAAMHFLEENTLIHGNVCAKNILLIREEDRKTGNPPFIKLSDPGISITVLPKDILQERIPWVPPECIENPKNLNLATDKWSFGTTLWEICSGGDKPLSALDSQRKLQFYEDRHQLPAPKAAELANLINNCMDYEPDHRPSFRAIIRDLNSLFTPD

Structure (SMILES) | Kd [1] | IC50 [2] | IC50 [3]
CNC(=O)c1nnc(NC(=O)C2CC2)cc1Nc1cccc(-c2cnn(C3CN(Cc4cccn(C(F)F)c4=O)C3)c2)c1OC [Compound 251] | 0.01 to 10 nM | 50 to 500 nM | 50 to 500 nM
CNC(=O)c1nnc(NC(=O)C2CC2)cc1Nc1cccc(-c2ccc(C(=O)N(C)Cc3cn(C)nc3C3CC3)nc2)c1OC [Compound 252] | 0.01 to 10 nM | 50 to 500 nM | 50 to 500 nM
CNC(=O)c1nnc(NC(=O)C2CC2)cc1Nc1cccc(-c2ccc(C(=O)N(C)Cc3nc(CN(C)C)cs3)nc2)c1OC [Compound 253] | 10 to 50 nM | 5000 to 100000 nM | 500 to 5000 nM
CNC(=O)c1nnc(NC(=O)C2CC2)cc1Nc1cccc(-c2cnn(C3CN(Cc4nccc5cc[nH]c45)C3)c2)c1OC [Compound 254] | 0.01 to 10 nM | 50 to 500 nM | 50 to 500 nM
CNC(=O)c1nnc(NC(=O)C2CC2)cc1Nc1cccc(-c2cnn(C3CN(Cc4cccc(C#CCO)n4)C3)c2)c1OC [Compound 255] | 0.01 to 10 nM | 50 to 500 nM | 50 to 500 nM
COc1c(Nc2cc(NC(=O)C3CC3)nn3cc(C)nc23)ccc(C)c1-c1ccc(C(=O)N(C)Cc2cc(C#N)ccn2)nc1 [Compound 256] | 0.01 to 10 nM | 500 to 5000 nM | 500 to 5000 nM
CNC(=O)c1nnc(NC(=O)C2CC2)cc1Nc1cccc(-c2ccc(C(=O)N(C)Cc3cn(C)nc3OC)nc2)c1OC [Compound 257] | 0.01 to 10 nM | 50 to 500 nM | 50 to 500 nM
CNC(=O)c1nnc(NC(=O)C2CC2)cc1Nc1cccc(-c2cnn(C3CN(Cc4cccc(C5CCC5)n4)C3)c2)c1OC [Compound 258] | 0.01 to 10 nM | 50 to 500 nM | 50 to 500 nM
CNC(=O)c1nnc(NC(=O)C2CC2)cc1Nc1cccc(-c2cnn(C3CN(Cc4cccc(C#CC(C)(C)O)n4)C3)c2)c1OC [Compound 259] | 0.01 to 10 nM | 50 to 500 nM | 50 to 500 nM
CNC(=O)c1nnc(NC(=O)C2CC2)cc1Nc1cccc(-c2cnn(C3CN(Cc4cccc(NC(C)=O)n4)C3)c2)c1OC [Compound 260] | 0.01 to 10 nM | 50 to 500 nM | 50 to 500 nM
CNC(=O)c1nnc(NC(=O)C2CC2)cc1Nc1cccc(-c2ccc(C(=O)N(C)Cc3nccc(C#N)n3)nc2)c1OC [Compound 261] | 0.01 to 10 nM | 50 to 500 nM | 500 to 5000 nM
COc1c(Nc2cc(NC(=O)C3CC3)nn3cc(C)nc23)ccc(C)c1-c1ccc(C(=O)N(C)Cc2cn(C)nc2C)nc1 [Compound 262] | 0.01 to 10 nM | 500 to 5000 nM | 5000 to 100000 nM
CNC(=O)c1nnc(NC(=O)C2CC2)cc1Nc1cccc(-c2ccc(C3CN(Cc4ccn(C)n4)C3)nc2)c1OC [Compound 263] | 10 to 50 nM | 5000 to 100000 nM | 5000 to 100000 nM
CNC(=O)c1nnc(NC(=O)C2CC2)cc1Nc1cccc(-c2ccc(C3CN(Cc4cnn(C)c4)C3)nc2)c1OC [Compound 264] | 50 to 500 nM | 5000 to 100000 nM | 5000 to 100000 nM
CNC(=O)c1nnc(NC(=O)C2CC2)cc1Nc1cccc(-c2cnn(C3CN(Cc4cccc(C#CCN)n4)C3)c2)c1OC [Compound 265] | 0.01 to 10 nM | 500 to 5000 nM | 500 to 5000 nM
CNC(=O)c1nnc(NC(=O)C2CC2)cc1Nc1cccc(-c2ccc(C3CN(Cc4cccc(C#N)n4)C3)nc2)c1OC [Compound 266] | 0.01 to 10 nM | 500 to 5000 nM | 500 to 5000 nM
CNC(=O)c1nnc(NC(=O)C2CC2)cc1Nc1cccc(-c2cnn(C3CN(Cc4cccn(C)c4=O)C3)c2)c1OC [Compound 267] | 0.01 to 10 nM | 50 to 500 nM | 50 to 500 nM
CNC(=O)c1nnc(NC(=O)C2CC2)cc1Nc1ccc(C)c(-c2cn(C3CN(Cc4cccc(C#N)n4)C3)nn2)c1OC [Compound 268] | 0.01 to 10 nM | 500 to 5000 nM | 500 to 5000 nM
CNC(=O)c1nnc(NC(=O)C2CC2)cc1Nc1ccc(C)c(-c2cn(C3CN(Cc4cccc(C)n4)C3)nn2)c1OC [Compound 269] | 0.01 to 10 nM | 500 to 5000 nM | 500 to 5000 nM
CNC(=O)c1nnc(NC(=O)C2CC2)cc1Nc1cccc(-c2ccc(C(=O)N(C)Cc3ncc(CN(C)C)s3)nc2)c1OC [Compound 271] | 0.01 to 10 nM | 500 to 5000 nM | 500 to 5000 nM
CNC(=O)c1nnc(NC(=O)C2CC2)cc1Nc1ccc(C#N)c(-c2ccc(C(=O)N(C)Cc3cc(C#N)ccn3)cc2)c1OC [Compound 272] | 0.01 to 10 nM | 500 to 5000 nM | 500 to 5000 nM
CNC(=O)c1nnc(NC(=O)C2CC2)cc1Nc1cccc(-c2cnn(C3CN(Cc4cccc(NS(C)(=O)=O)n4)C3)c2)c1OC [Compound 273] | 0.01 to 10 nM | 500 to 5000 nM | 500 to 5000 nM

Structure (SMILES) | Kd [1] | IC50 [2] | IC50 [3]
CNC(=O)c1nnc(NC(=O)C2CC2)cc1Nc1cccc(-c2cnn(C3CN(Cc4cccc(C5(O)CC5)n4)C3)c2)c1OC [Compound 274] | 0.01 to 10 nM | 50 to 500 nM | 50 to 500 nM
CNC(=O)c1nnc(NC(=O)C2CC2)cc1Nc1cccc(-c2cnn(C3CN(Cc4cccc(C(=O)N(C)C)n4)C3)c2)c1OC [Compound 275] | 0.01 to 10 nM | 10 to 50 nM | 10 to 50 nM
CNC(=O)c1nnc(NC(=O)C2CC2)cc1Nc1cccc(-c2cnn(C3CN(Cc4cccc(C5CC5)n4)C3)c2)c1OC [Compound 276] | 0.01 to 10 nM | 50 to 500 nM | 50 to 500 nM
CNC(=O)c1nnc(NC(=O)C2CC2)cc1Nc1cccc(-c2cnn(C3CN(Cc4cccc(C(C)(C)C#N)n4)C3)c2)c1OC [Compound 277] | 0.01 to 10 nM | 50 to 500 nM | 50 to 500 nM
CNC(=O)c1nnc(NC(=O)C2CC2)cc1Nc1ccc(C)c(-c2ccc(C(=O)N(C)Cc3cn(C)nc3C)cn2)c1OC [Compound 278] | 0.01 to 10 nM | 500 to 5000 nM | 500 to 5000 nM
CNC(=O)c1nnc(NC(=O)C2CC2)cc1Nc1cccc(-c2ccc(C3CN(Cc4cc(C#N)ccn4)C3)nc2)c1OC [Compound 279] | 10 to 50 nM | 5000 to 100000 nM | 5000 to 100000 nM
CNC(=O)c1nnc(NC(=O)C2CC2)cc1Nc1cccc(-c2cncc(C3CN(Cc4ccccn4)C3)c2)c1OC [Compound 280] | 10 to 50 nM | 5000 to 100000 nM | 5000 to 100000 nM
CC#Cc1cccc(CN2CC(n3cc(-c4cccc(Nc5cc(NC(=O)C6CC6)nnc5C(=O)NC)c4OC)cn3)C2)n1 [Compound 281] | 0.01 to 10 nM | 50 to 500 nM | 50 to 500 nM
CNCc1cnc(CN(C)C(=O)c2ccc(-c3cccc(Nc4cc(NC(=O)C5CC5)nnc4C(=O)NC)c3OC)cn2)s1 [Compound 282] | 0.01 to 10 nM | 500 to 5000 nM | 500 to 5000 nM
CNC(=O)c1nnc(NC(=O)C2CC2)cc1Nc1cccc(-c2ccc(C(=O)N(C)Cc3cnn(C4CC4)c3C)nc2)c1OC [Compound 284] | 0.01 to 10 nM | 500 to 5000 nM | 500 to 5000 nM
CNC(=O)c1nnc(NC(=O)C2CC2)cc1Nc1cccc(-c2ccc(C(=O)N(C)Cc3cn(C4CC4)nc3C)nc2)c1OC [Compound 285] | 0.01 to 10 nM | 500 to 5000 nM | 500 to 5000 nM
CNC(=O)c1nnc(NC(=O)C2CC2)cc1Nc1cccc(-c2cnn(C3CN(Cc4cccc5ccnn45)C3)c2)c1OC [Compound 287] | 0.01 to 10 nM | 50 to 500 nM | 50 to 500 nM
CNC(=O)c1nnc(NC(=O)C2CC2)cc1Nc1cccc(-c2ccc(C3CN(Cc4cccnc4C(F)F)C3)nc2)c1OC [Compound 288] | 50 to 500 nM | 5000 to 100000 nM | 5000 to 100000 nM
CNC(=O)c1nnc(NC(=O)C2CC2)cc1Nc1ccc(C)c(-c2cnc(C(=O)N(C)Cc3cc(C(F)F)ccn3)c(F)c2)c1OC [Compound 289] | 0.01 to 10 nM | 50 to 500 nM | 50 to 500 nM
CNC(=O)c1nnc(NC(=O)C2CC2)cc1Nc1cccc(-c2cnn(C3CN(Cc4cccc(C5(C#N)CCC5)n4)C3)c2)c1OC [Compound 290] | 0.01 to 10 nM | 50 to 500 nM | 50 to 500 nM
CNC(=O)c1nnc(NC(=O)C2CC2)cc1Nc1cccc(-c2ccc(C3CN(Cc4cnccc4C(F)F)C3)nc2)c1OC [Compound 291] | 10 to 50 nM | 5000 to 100000 nM | 500 to 5000 nM
CNC(=O)c1nnc(NC(=O)C2CC2)cc1Nc1cccc(-c2cnn(C3CN(Cc4cccc(C5(C#N)CC5)n4)C3)c2)c1OC [Compound 292] | 0.01 to 10 nM | 50 to 500 nM | 50 to 500 nM
CNC(=O)c1nnc(NC(=O)C2CC2)cc1Nc1cccc(-c2ccc(C3CN(Cc4cn(C)nc4C#N)C3)nc2)c1OC [Compound 293] | 50 to 500 nM | 500 to 5000 nM | 5000 to 100000 nM
CNC(=O)c1nnc(NC(=O)C2CC2)cc1Nc1cccc(-c2cnn(C3CN(Cc4cccc([N+](=O)[O-])n4)C3)c2)c1OC [Compound 294] | 0.01 to 10 nM | 50 to 500 nM | 50 to 500 nM
CNC(=O)c1nnc(NC(=O)C2CC2)cc1Nc1cccc(-c2cnn(C3CN(Cc4cc([N+](=O)[O-])ccn4)C3)c2)c1OC [Compound 295] | 0.01 to 10 nM | 50 to 500 nM | 50 to 500 nM
CNC(=O)c1nnc(NC(=O)C2CC2)cc1Nc1ccc(C)c(-c2ccc(C(=O)N(C)Cc3cc(C(F)F)ccn3)nc2)c1OC [Compound 296] | 0.01 to 10 nM | 50 to 500 nM | 50 to 500 nM
